Laboratory results from patent US8372955B2, “Purified antibody to the extracellular domain of NKp44L” (Assistance Publique Hopitaux de Paris, priority 2003, dated 2013).

Assays:
purified CD4+ T cells [1] = assay type: cell-based, human; conditions: 6-mers peptide, preliminary experiment
purified CD4+ T cells [2] = assay: NK lysis sensitivity of treated CD4+ T cells, 4-h 51Cr-release assay with activated autologous purified NK cells; assay type: cell-based, human; conditions: 6-mers peptide, preliminary experiment
Protocol: NK lines were generated from PBMC, and then purified using the StemSep cell separation system and the NK cell enrichment antibody cocktail (StemCell technologies). NK purified cells were cultured in MyeloCult H5100 medium (StemCell technologies) supplemented with 100 units rhIL-2 (Boheringer). The purity of these preparations was evaluated by flow cytometry after staining with anti-CD3 (BD), anti-CD56 (BD), anti-NKp44, and anti-NKp46 mAbs.
The cytololytic activity was assayed in 4-h ^51Cr-release assay as previously described. Briefly, the target cells were labeled for 2-h at 37° C. with 100 μCi per 10^6 cells Na^51Cr (Amersham), and washed twice with culture medium. The target cells were then distributed in round-bottomed 96-well microtiter plates (4×10^3 cells per well), and the effector cells were added at several E/T ratio. The plates were incubated 4-h at 37° C. The supernatant were then collected and ^51Cr-release was measured in a gamma counted. In experiments in which Abs were included, these were added to final concentration of 20 μg/ml. The relative specific ^51Cr-release was calculated as previously described. Values for spontaneous ^51Cr-release, which are deducted in the calculation, were between 10 and 20% of the total incorporated radioactivity. The results are presented after subtraction of the nonspecific lysis obtained with control targets. […]

Question: What does the source list for “H-SWSNKS-OH [NH2-SWSNKS—COOH, NH2-SWSNKS—COOH (SEQ ID NO: 7)]”?
Answer: Cell surface expression of NKp44L (purified CD4+ T cells [1]): any increased; NK cytotoxic activity (purified CD4+ T cells [2]): any increased
